# Results taken from patent publication US9708332B2, “Respiratory syncytial virus inhibitors” (MEDIVIR AB, priority 2013, dated 2017).
# Test system: RSV (Long)
# Assay: RSV cytopathic effect (CPE)-based viral replication assay in HEp-2 cells
# Settings: human respiratory syncytial virus, 72 h; HEp-2 cells infected with RSV Long at MOI 0.015, 3 days, cell viability by CellTiter-Glo; read-out: Ec50 (nM) Example A
# Description: Compounds of the invention are initially tested in a cytopathic effect (CPE)-based viral replication assay using immortalized cells and a laboratory strain of RSV (Long). This assay evaluates the ability of a compound to inhibit viral replication. Assay plates are prepared by seeding 2,500 HEp-2 cells (ATCC) per well of a 384-well black clear-bottom plate (Greiner Bio-One) in 20 μL of assay media (defined as DMEM supplemented with 2% heat-inactivated fetal bovine serum and 1% Penicillin/Streptomycin). Assay plates are incubated overnight at 37° C. in an incubator containing 5% CO2. The following day, a 10-point serial dilution of test compound is prepared in DMSO. Compounds are subsequently diluted with assay media and 20 μL of diluted compound (containing 1.5% DMSO) is transferred to an assay plate for evaluation of antiviral activity. For the CPE assay, cells are infected at a MOI of 0.015 using 20 μL of RSV Long (ATCC) diluted in assay media. The DMSO concentration is constant throughout the assay plate, including the negative and positive controls. The assay plate is incubated for 3 days at 37° C. in an incubator containing 5% CO2. Cell viability is evaluated with the addition of 10 μL of CellTiter-Glo (ProMega). Luminescence is measured using an EnVision plate reader (Perkin Elmer). EC50 values are calculated using the raw data from the CPE assays, respectively.
row,EC50 [nM],Compound
1,260,O=c1n(Cc2nc(OCCCO)c3ccccc3n2)c2cnccc2n1C1CC1 [Compound 1002]
2,1100,O=c1n(Cc2nc(CCCCO)c3ccccc3n2)c2ccccc2n1C1CC1 [Compound 1016]
3,28,Cc1ccc2c(OCC3CCOC3)nc(Cn3c(=O)n(C4CC4)c4ccncc43)nc2c1 (stereo not shown) [Compound 1034]
4,140,N#Cc1ccc2nc(Cn3c(=O)n(C4CC4)c4ccncc43)nc(OCC3CCOC3)c2c1 (stereo not shown) [Compound 1036]
5,6400,Cn1cc(-c2ccc3c(OCC4CCOC4)nc(Cn4c(=O)n(C5CC5)c5ccncc54)nc3c2)cn1 (stereo not shown) [Compound 1043]
6,43,CS(=O)(=O)CCCOc1nc(Cn2c(=O)n(C3CC3)c3ccncc32)nc2cc(Cl)ccc12 [Compound 1065]
7,1200,O=c1n(Cc2nc(OCCCO)c3ccccc3n2)c2ccccc2n1C1CC1 [Compound 1069]
8,2.8,Cc1cc2n(Cc3nc(OCC4CCOC4)c4cc(C#N)ccc4n3)c(=O)c3ccccc3n2n1 (stereo not shown) [Compound 1074]
9,130,O=c1n(Cc2nc(OC3CCOC3)c3ccc(Cl)cc3n2)c2c[n+]([O-])ccc2n1C1CC1 (stereo not shown) [Compound 1104]
10,970,CN(Cc1cnn(C)c1)c1nc(Cn2c(=O)n(C3CC3)c3ccccc32)nc2ccccc12 [compound 1005]
11,450,O=c1n(Cc2nc(OCC3CCOC3)c3ccccc3n2)c2ncccc2n1C1CC1 (stereo not shown) [compound 1020]
12,10,Cc1cc2n(Cc3nc(N(C)Cc4cnn(C)c4)c4ccccc4n3)c(=O)c3ccccc3n2n1 [compound 1027]
13,1700,Cc1cc2n(Cc3nc(OCC4CCOC4)c4ccc(Br)cc4n3)c(=O)c3ccccc3n2n1 (stereo not shown) [compound 1047]
14,600,O=c1n(Cc2nc(OCC3CCOC3)c3cc(Cl)ccc3n2)c2cnccc2n1C1CC1 (stereo not shown) [compound 1054]
15,29,O=c1n(Cc2nc(OC3CCOC3)c3ccc(Cl)cc3n2)c2cnccc2n1C1CC1 (stereo not shown) [compound 1061]
16,63,O=c1n(Cc2nc(OC3COC3)c3ccc(Cl)cc3n2)c2cnccc2n1C1CC1 [compound 1068]
17,16,Cc1cc2n(Cc3nc(OCC4CCOC4)c4ccccc4n3)c(=O)c3ccccc3n2n1 (stereo not shown) [compound 1070]
18,280,O=C1CCCN1CCOc1nc(Cn2c(=O)n(C3CC3)c3ccncc32)nc2cc(Br)ccc12 [compound 1081]
19,280,O=c1n(Cc2nc(OCC3CCOC3)c3c(Cl)cccc3n2)c2cnccc2n1C1CC1 (stereo not shown) [compound 1085]
20,710,O=c1n(Cc2nc(OCC3CCOC3)c3cccc(Cl)c3n2)c2cnccc2n1C1CC1 (stereo not shown) [compound 1090]
21,380,O=c1n(Cc2nc(OCC3CCOC3)c3ccc(Cl)cc3n2)c2cnccc2n1C1CCOCC1 (stereo not shown) [compound 1095]
22,300,O=c1n(Cc2nc(OCC3CCOC3)c3ccc(Cl)cc3n2)c2cnccc2n1C1CCS(=O)(=O)C1 (stereo not shown) [compound 1096]
23,93,Cc1ncc2n(Cc3nc(OC4CCOC4)c4ccccc4n3)c(=O)c3ccccc3n12 (stereo not shown) [compound 1097]

row,EC50 [nM],Compound
1,25,Cc1ncn2c3ccccc3c(=O)n(Cc3nc(OC4CCOC4)c4ccccc4n3)c12 (stereo not shown) [compound 1100]
2,1600,N#Cc1cc2ccccc2n(Cc2nc(OC3CCOC3)c3ccccc3n2)c1=O (stereo not shown) [compound 1108]
3,7700,CN(CC1CCOC1)c1nc(Cn2ccc3nccn3c2=O)nc2ccccc12 (stereo not shown) [compound 1119]
4,26,Cc1cc2n(Cc3nc(N(C)CC4CCOC4)c4ccccc4n3)c(=O)c3ccccc3n2n1 (stereo not shown) [compound 1140]
5,480,Cn1c(=O)n(Cc2nc(OCC3CCOC3)c3ccccc3n2)c2ccccc21 (stereo not shown) [compound 1142]
6,590,Cc1cc(CN(C)c2nc(Cn3c(=O)n(C4CC4)c4ccncc43)nc3ccccc23)on1 [compound 1163]
7,1000,Cc1cc(CN(C)c2nc(CN3C(=O)N(C4CC4)Cc4ccccc43)nc3ccccc23)on1 [compound 1164]
8,280,Cc1cc(CN(C)c2nc(Cn3c(=O)c4ccccc4c4ccccc43)nc3ccccc23)on1 [compound 1168]
9,400,CN(Cc1cnn(C)c1)c1nc(Cn2c(=O)c3ccccc3n3ncc(C#N)c23)nc2ccccc12 [compound 1179]
10,1400,Cc1cc2n(Cc3nc(NC(C)c4cnn(C)c4)c4ccccc4n3)c(=O)c3ccccc3n2n1 (stereo not shown) [compound 1180]
11,470,CN(Cc1cnn(C)c1)c1nc(Cn2c(=O)c3ccccc3n3cncc23)nc2ccccc12 [compound 1183]
12,21,O=c1c2ccccc2n2nccc2n1Cc1nc(OC2CCOC2)c2ccccc2n1 (stereo not shown) [compound 1198]
13,8.8,CCc1cc2n(Cc3nc(OC4CCOC4)c4ccccc4n3)c(=O)c3ccccc3n2n1 (stereo not shown) [compound 1199]
14,29,O=c1c2ccccc2n2nncc2n1Cc1nc(OC2CCOC2)c2ccccc2n1 (stereo not shown) [compound 1200]
15,79,Cc1c(C#N)c(=O)n(Cc2nc(OC3CCOC3)c3ccccc3n2)c2ccccc12 (stereo not shown) [compound 1204]
16,6.6,Cc1cc2n(Cc3nc(OC4CCOC4)c4ccccc4n3)c(=O)c3ccccc3n2n1 (stereo not shown) [compound 1205]
17,110,O=c1n(Cc2nc(OC3CCOC3)c3ccccc3n2)c2cnccc2n1C1CC1 (stereo not shown) [compound 1206]
18,15,Cc1cc2n(Cc3nc(N(C)Cc4cnn(C)c4)c4ccccc4n3)c(=O)c3ccncc3n2n1 [compound 1212]
19,31,COc1cccc2c(=O)n(Cc3nc(N(C)Cc4cnn(C)c4)c4ccccc4n3)c3cc(C)nn3c12 [compound 1215]
20,380,O=c1n(Cc2nc(OC3CCOC3)c3ccc(Cl)cc3n2)c2cccnc2n1C1CC1 (stereo not shown) [compound 1218]
21,200,O=c1n(Cc2nc(OC3CCOC3)c3ccc(Cl)cc3n2)c2ncccc2n1C1CC1 (stereo not shown) [compound 1219]
22,170,O=c1n(Cc2nc(OC3CCOC3)c3ccccc3n2)c2ncccc2n1C1CC1 (stereo not shown) [compound 1221]
23,490,O=c1n(Cc2nc(OCC3CCOC3)c3ccccc3n2)c2cccnc2n1C1CC1 (stereo not shown) [compound 1222]
